From patent US20250195523A1, “ORGANIC MOLECULES FOR TREATING MYELIN PATHOLOGIES” (ICM (INSTITUT DU CERVEAU ET DE LA MOELLE ÉPINIÈRE), priority 2022, published 2025) come the findings set out here.

Experiment [1] has as its system cerebellar slices explants. The experiment in a line: Ex vivo cerebellar organotypic explant culture, differentiation and myelination index. The settings on record: 750 nM, three days (7-10 DIV); for differentiation index (CC1+/Sox10+ OLs number): compared to negative controls, FIG. 3B. The class given is cell-based, mice. As for the experimental part: We prepared cerebellar organotypic cultures from newborn (P0) mice. Cerebellar parasagittal slices (350 μm thick) were cut on a McIlwain tissue chopper and transferred onto 30 mm diameter Millipore culture inserts with […] (Millicell, Millipore). Slices were maintained in incubators at 37° C., under a humidified atmosphere containing 5% CO2 in six-well-plates containing 1 mL of slice culture media. This medium includes basal medium eagle (Invitrogen), 25% complete HBSS, 27 mM D-glucose, 100 U/mL penicillin/streptomycin, 1 mM glutamine (Sigma) and 5% horse serum (New Zealand origin, heat inactivated; Invitrogen). Medium was renewed every 2 days until 7 DIV, reaching the appropriate culture periods to study OPC differentiation and myelination. […] Slices were collected and fixed for 1 h at RT in PBS-4% paraformaldehyde, washed 3 times in PBS, and incubated 20 min at 4° C. in Clark's solution (95% ethanol/5% acetic acid), then washed 3 times in PBS 1×.
For ex-vivo cerebellar slices, slices were incubated 20 min at 4° C. in Clark's solution (95% ethanol/5% acetic acid), then washed 3 times in PBS 1×. Then, sections were incubated for 1 hour in a blocking buffer (0.2% Triton X-100/4% bovine serum albumin/4% donkey serum/PBS). Slices were incubated for 2 hours with the following primary antibodies at RT: Goat anti-Sox10 (1:100, R&D Systems); Rabbit anti-Calbindin (1:1000; Swant); Rat anti-MBP (1:200; Abcam); Mouse anti-CC1 (IgG2b; 1:100, Calbiochem). Then slices were washed 3 times in PBS/0.1% Triton X-100 and incubated in blocking buffer (dark, RT) for 2 hours with appropriate secondary antibodies conjugated with Alexa Fluor 488, 594 and 647 (1:1000; Molecular Probes or Thermo Fisher) and Dapi (1:5000 from working solution at 5 mg/ml; Life Technologies; D1306). Finally, slices were washed 3 times in PBS/0.1% Triton X-100 after incubation and mounted in Fluoromount-G (SouthernBiotech).
Then, we firstly performed a simpler and faster experimental model using cerebellar slices explants to identify the best drugs having pro-oligodendrogenenic and pro-myelinating activities in this ex vivo model, to be used in the in vivo analyses. Indeed, this model allowed us to better assess later aspects of OL maturation, myelination, and cytotoxicity in a richer cellular system, also containing immune cells (microglia/macrophages) that are known to influence oligodendrogenesis and (re) myelination. In this model, the start of myelination takes place after 7 days in culture (FIG. 3A). […] We then analyzed the effect in terms of OL numbers (CC1+/Sox10+ cells) and myelination (MBP labeling on CaBP+ Purkinje cell axons), by immunodetection of all four markers in the same sections. We calculated the differentiation index as the ratio of Sox10+ cells being CC1+, and the myelination index as the ratio CaBP+ axons being MBP+. […] On the one hand, we used the adult focal de/remyelination induced by intracerebral injection of […] (LPC) mimicking de/remyelination of MS, and on the other hand, the neonatal chronic hypoxia model, mimicking PTB hypomyelination.

Experiment [2] has as its system primary OPCs purified by magnetic cell sorting (MACS) from neonatal cortices. The experiment in a line: Primary OPC cultures purified by MACS, morphological complexity of OLs. The class given is cell-based, mice. The conditions noted are these: OPCs treated for two days; compared to vehicle; FIG. 2B. The method, then:
Brains were collected from PLPGFP and P4 Swiss mice […] and washed 3 times in PBS 1× (Invitrogen) with 1% of penicillin/streptomycin (Sigma). Cortex and corpus callosum were dissected and dissociated using neural tissue dissociation kit (T) (Miltenyi biotec) and with dissociator (gentleMACS Octo Dissociator, Miltenyi Biotec). OPC magnetic cell sorting was performed using anti-PDGFRα-coupled-beads (CD140a-PDGFRα MicroBead Kit, Miltenyi biotec) and MultiMACS Cell24 Separator Plus (Miltenyi biotec). Cells were collected in PBS and amplified for 2 days in a proliferating medium (with growth factors IGF, EGF, FGF, and PDGFα). Then, 40.000 cells were plated in 24 well plates adherent on coverslips, beforehand coated with poly-ornithine (Merck) diluted in 4 volumes of H2O and washed 3 times. Successively, for 2 days of proliferation and differentiation, medium was added with drugs at 250 nM, 500 nM and 750 nM, and their respective vehicles (DMSO, PBS). Cells were fixed in 4% PBS-paraformaldehyde (thermo fisher) for 10 minutes and washed 3 times in PBS-1×.
For coated-coverslip, blocking was performed in a moist chamber for 30 mn at room temperature (RT) in the blocking buffer (0.05% Triton X-100/10% normal goat serum/PBS). Then, coverslip were incubated for 30 mn with the following primary antibodies at RT. Rat anti-PDGFRα (1:250, BD Biosciences); Mouse anti-CNPase (mlgG1, 1:250; Millipore); Rabbit anti-Btub (1:1000; BABCO); Chicken anti-GFAP (1:500, Avelabs), Mouse anti-MBP (mlgG1, 1:150; Abcam); Rabbit anti-Sox10 (1:1000; Proteintech). Following 3 washing in 0.05% Triton X-100/PBS, coverslips were incubated 30 min at RT in dark with appropriate secondary antibodies conjugated with Alexa Fluor 488, 594 and 647 (1:1000; Molecular Probes or Thermo Fisher) and Dapi (1:5000 from working solution at 5 mg/ml; Life Technologies; D1306). Coverslips were washed 3 times in 0.05% Triton X-100/PBS and mounted with Fluoromount-G (SouthernBiotech).
To evaluate cell specific contribution of the drugs directly in OL differentiation and maturation, we used primary OPCs purified by magnetic cell sorting (MACS) from neonatal cortices (P4).

Experiment [3] concerns neural progenitor cells (NPCs) obtained from the neonatal SVZ. The experiment in a line: Neonatal neural progenitor cell (neurosphere-derived) differentiation cultures, immunodetection of neural lineages. The class given is cell-based, mice. The conditions noted are these: for increase in iOLs (Sox10high cells): fold-change between drug treatment and vehicle, FIG. 1G; for neurogenesis (neuronal β-III-tubulin+ cells): 750 nM, compared to vehicle, FIG. 1D.
Protocol: NSC medium was prepared using up to 50 ml DMEM/F12 (Gibco), containing 666 μl glucose at 45% (Sigma), 0.5 ml penicillin/streptomycin (Sigma), 250 μl HEPES buffer at 1M (Gibco), 500 μl mL N2 supplement (Gibco), 1 mL B27 supplement (Gibco) and with growth factors Insulin 20 μg/ml (Sigma), EGF at 20 ng/ml (Peprotech), FGF 10 ng/ml (Peprotech). Brains were collected from Swiss mice at P0 and washed 3 times in PBS 1× (Invitrogen) with 1% of penicillin/streptomycin (Sigma). SVZ was dissected, transferred in fresh NSC medium and dissociated with pipette. Cells were amplified in a 25 ml flask (1 million of cells for 5 mL of medium), and maintained in a humidified atmosphere at 37° C. and 5% of CO2. Two-three days after, cells have grown as floating neurospheres and were collected by centrifugation at 500 g for 5 mn, dissociated before adding proliferating NSC medium. After 2 passages, 30.000 cells were plated in 24 well plates adherent on coverslips, beforehand coated with poly-ornithine (Merck) diluted in 4 volumes of H2O and washed 3 times. Drugs were added at different ranges of concentration (250 nM, 500 nM and 750 nM) and their respective vehicles (DMSO, or PBS). Medium (including drugs or vehicle) was changed each 2 days. After 4 days with proliferation factors, a differentiation medium without growth factors was added (with drugs or vehicle) for two days. Cells were washed once in PBS, fixed in 4% PBS-paraformaldehyde (thermofischer) for 10 minutes, and washed 3 times in PBS-1×.
To do so, we first used a culture of mix neural progenitor cells (NPCs) obtained from the neonatal SVZ (postnatal day 1, P1). […] We supplemented the drugs in both the proliferation and differentiation medium to analyze both their effect in neural cell type specification into the different neural lineages, and assess their ability to foster OPC differentiation. […]

For experiment [4], the system named is focal demyelination in the corpus callosum of adult mice. The experiment in a line: Lysolecithin (LPC) induced focal de/remyelination model in adult mice, oral administration in drinking water. In kind it is in vivo. The conditions noted are these: 7 dpl, oral daily. The method, then:
We weighted and anesthetized 4 months old RjOrl: SWISS mice (Janvier) with isoflurane (induced at 3%, and maintained at 1.2-1.6%). We induced focal demyelinating lesions by injecting 0.5 μl of a solution of 1% lysolecithin (LPC, Sigma in 0.9% NaCl solution) into the corpus callosum. To do so, a glass-capillary connected to a 10 μl Hamilton syringe was fixed and oriented through stereotaxic apparatus (coordinates: 1 mm lateral, 1.3 mm rostral to Bregma, 1.7 mm deep to brain surface). Animals were left to recover for a few hours in a warm chamber. […] Mice was perfused at 2% cold paraformaldehyde (thermos fisher) at 7 DPI.
For in-vivo cryosections (14-μm thick) of lesions, immunohistochemistry was performed after 30 mn drying at RT in a moist chamber. For myelin staining, ethanol treatment (100%) was performed for 10 mn at RT. Briefly, sections were permeabilized and blocked in a blocking buffer for 1 h (0.05% Triton X-100/10% normal goat serum/PBS). Then, cryosections were incubated overnight with the following primary antibodies at 4° C.: Mouse anti-APC (CC1 IgG2B; 1:100, calbiochem); Rabbit anti-Olig2 (1:500; Millipore); Mouse anti-Olig1 (IgG1; 1:500; NeuroMab); Rat anti-CD68 (1:500, AbD SEROTEC/BioRad); Rabbit anti-IBA1 (1:500, Wako Fujifilm); Mouse anti-MOOG (mlgG1, 1:20; Hybridoma). Then sections were washed 3 times in 0.05% Triton X-100/PBS and incubated 1 hour at RT with appropriate secondary antibodies conjugated with Alexa Fluor 488, 594 and 647 (1:1000; Molecular Probes or Thermo Fisher) and Dapi (1:5000 from working solution at 5 mg/ml; Life Technologies; D1306). Sections were washed 3 times in 0.05% Triton X-100/PBS and mounted with Fluoromount-G (SouthernBiotech).
We analyzed the lesions at 7 days post-lesion (7 dpl), when newly formed OLs have started to remyelinate the lesion in this model. The lesion area was identified by immunodetection of the high cellular density with DAPI staining, reduction of myelin with myelin oligodendrocyte glycoprotein (MOG), and abundance of microglia/macrophages with Iba1 and Cd68. We determined the effect of the drugs to promote oligodendrogenesis at the lesion site by combinatory immunodetection of Olig2, CC1 and Olig1, allowing to distinguish OPCs (Olig2^high/CC1^−/Olig1^nuclear-cyto cells) and three stages in OL differentiation: iOL1 (Olig2^high/CC1^high/Olig1^− cells), iOL2 (Olig2^high/CC1^high/Olig1^high-cyto cells), and mOL (Olig2^low/CC1^low/Olig1^low cells). […] Given the increase in OL differentiation by the drugs administration, without diminishing the pool of OPCs in the lesion area, we assessed for the proliferative status of OPCs, using Mcm2 and Ki67 proliferative markers, finding that both drugs promote a ˜2-fold increase in the density of proliferative OPCs (FIG. 4D) and in the proportion of proliferative OPCs (FIG. 4E).
To investigate the possible anti-inflammatory and pro-regenerative activity of these drugs, we performed staining for microglia/macrophages (Iba1+ cells), their active phagocytic status (Cd68+ cells), together with myelin (MOG) and cell density (DAPI) to identify the lesion area.

Regarding `Cc1cc2c(cc1S(N)(=O)=O)S(=O)(=O)CCC2` [Sm1, Meticrane], the “differentiation index (CC1+/Sox10+ OLs number)” value in experiment [1] was “increased differentiation index”. Moreover, in experiment [2], the “morphological complexity of OLs (PLP+ cells)” value (shortened to “morphological complexity”) is given as “strongly increased”.

For `CC(N)CCCC(C)(C)O` (stereo not shown) [Sm2, Heptaminol], the “differentiation index (CC1+/Sox10+ OLs number)” value in experiment [1] was “increased differentiation index”. Also, the “myelination process (MBP+/CaBP+), myelination index” value in experiment [1] (compared to vehicle, FIG. 3C) is on record as “robust increase”. Further, the “morphological complexity” value in experiment [2] is reported as “strongly increased”.

As for `C[C@@H]1C(=O)O[C@H]2C[C@@]34[C@H]5C[C@@H](C(C)(C)C)[C@]36[C@@H](OC(=O)[C@@H]6O)O[C@@]4(C(=O)O5)[C@]21O` [Sm6, Ginkgolide A], the “morphological complexity” value in experiment [2] is given as “strongly increased”.

In the case of `C#C[C@]1(O)CC[C@H]2[C@@H]3CCC4=CC(=O)CC[C@@H]4[C@H]3CC[C@@]21CC` [Sm7, Levonorgestrel], the “increase in iOLs (Sox10high cells)” value in experiment [3] is reported as “increased tendency not reaching statistical significance”.

Consider `S=C(NC1CCCCC1)N1CCC(c2cnc[nH]2)CC1` [Sm9, Thioperamide], for which the “neurogenesis (neuronal β-III-tubulin+ cells)” value in experiment [3] is on record as “positive effect”.

Turning to `OC(CCN1CCCCC1)(c1ccccc1)C1CCCCC1` (stereo not shown) [Sm10, Trihexyphenidyl], the “increase in iOLs (Sox10high cells)” value in experiment [3] was “increased tendency not reaching statistical significance”.

As for `Nc1nc(=O)c2c([nH]1)NCC(CNc1ccc(C(=O)N[C@@H](CCC(=O)O)C(=O)O)cc1)N2C=O.[Ca+2]` (stereo partly shown) [Sm11, Calcium folinate], in experiment [4] (sm5 at 5 μg per g, control 942.5±265.7, FIG. 4B), the “number of oligodendroglial cells in the remyelinating area (Olig2+ cells)” value stood at 1558±331 Olig2+ cells per mm^2. Besides, the “density of OPCs (Olig2high/CC1−/Olig1nuclear-cyto cells) in the lesion area” value in experiment [4] (FIG. 4C) is listed as “did not change”. Moreover, in experiment [4] (FIG. 4I), the “pro-regenerative microglia (Arg1+ cells)” value is on record as “corresponding increase”. Besides, the “actively phagocytic microglia/macrophages (Cd68+ cells)” value in experiment [4] (control 22.45%, FIG. 4H) is reported as 12.13%±5.14. In experiment [4] (control 33.64%, FIG. 4G), the “surface occupied by Iba1+ microglia/macrophages in the lesion area” value is on record as 27.28%±4.16. Besides, in experiment [4] (versus control), the “increase of each stage of OL differentiation (iOL1, iOL2 & mOL)” value was ~2 fold. For the same molecule, the “increase in the density of proliferative OPCs (Mcm2, Ki67 markers)” value in experiment [4] (versus control, FIG. 4D) is ~2 fold. Besides, in experiment [4] (versus control, FIG. 4E), the “increase in the proportion of proliferative OPCs” value is ~2 fold. Also, the “neurogenesis (neuronal β-III-tubulin+ cells)” value in experiment [3] is recorded as “positive effect”. Moreover, the “morphological complexity” value in experiment [2] is “strongly increased”.
